# Several values for one entry are separate records, joined by “and”; a condition that tells them apart may be missing. Equal entries are not always repeated.
# Columns and labels:
# CRO-AP2 = experiment: OncoPanel cell proliferation assay, CRO-AP2; type: cell-based, human; conditions: for Relative cell count (%) Mean: CRO-AP2
# Description: (§1) Cells were grown in RPMI 1640, 10% FBS, 2 mM L-alanyl-L-glutamine, 1 mM Na pyruvate, or a special medium. Cells were seeded into 384-well plates and incubated in a humidified atmosphere of 5% CO2 at 37° C. Compounds were added the day following cell seeding. At the same time, a time zero untreated cell plate was generated. After a 3-day incubation period, cells were fixed and stained to allow fluorescence imaging of nuclei. Compounds (1 mM stock solutions) were serially diluted in half-log steps from the highest test concentration ([…]), and assayed over 10 concentrations with a maximum assay concentration of 0.1% DMSO. Automated fluorescence microscopy was carried out using a Molecular Devices ImageXpress Micro XL high-content imager, and images were collected with a 4× objective. 16-bit TIFF images were acquired and analyzed with MetaXpress 5.1.0.41 software.
# (§2) Cell proliferation was measured by the fluorescence intensity of an incorporated nuclear dye. The output is referred to as the relative cell count, where the measured nuclear intensity is transformed to percent of control (POC) using the following formula: […]
# (§3) Cellular response parameters were calculated using nonlinear regression to a sigmoidal single-site dose response model:
# (§4) Where y is a response measured at concentration x, A and B are the lower and upper limits of the response, C is the concentration at the response midpoint (EC50), and D is the Hill Slope (Ref. 1).
# (§5) EC50 is the test compound concentration at the curve inflection point or half the effective response (parameter C of the fitted curve solution). GI50 is the concentration needed to reduce the observed growth by half (midway between the curve maximum and the time zero value). “Cell Count Activity Area” is an estimate of the integrated area above the curve (Barretina, et al. The Cancer Cell Line Encyclopedia enables predictive modelling of anticancer drug sensitivity. Nature 483: 603-607). […] In rare instances, values <0 or >10 may be observed. […] Curve-fitting, calculations, and report generation was performed using a custom data reduction engine and MathIQ based software (AIM).
# U2OS = experiment: OncoPanel cell proliferation assay, U2OS; type: cell-based, human
# Description: as §1, with “Cells” for “Cells were grown in RPMI 1640, 10% FBS, 2 mM L-alanyl-L-glutamine, 1 mM Na pyruvate, or a special medium. Cells”
# as §2, §3, §4
# GI50 is the concentration needed to reduce the observed growth by half (midway between the curve maximum and the time zero value). […] In rare instances, values <0 or >10 may be observed. […] Curve-fitting, calculations, and report generation was performed using a custom data reduction engine and MathIQ based software (AIM).
# U-87 MG = experiment: OncoPanel cell proliferation assay, U-87 MG; type: cell-based, human
# Description: as §1, §2, §3, §4, §5
# [1] = Whole blood concentrations in mice after IP dosing (LC-MS/MS); type: in vivo; conditions: 2 mg/kg IP QD x 3 days
# Description: These determinations were made using protein precipitation, liquid chromatography (LC), and mass spectrometry (MS/MS). Ten μl aliquots of whole blood and matrix calibration standards were distributed in a 96-well plate; 10 μl aliquots of blank matrix for matrix blanks and control blanks were included as controls. Ten μl of water was added to each sample followed by vortexing. One hundred sixty […] of internal standard was added to each sample except the matrix blanks; 160 μl 70:30 water:acetonitrile (ACN) was added to matrix blanks. This was followed by a […]. One hundred fifty μl of the resultant supernatant was then transferred to a new 96-well plate and the samples blown to dryness at 35° C. The resultant product was then reconstituted with 90 μl ACN.
# [2] = Homo sapiens, 72 h, 3-day incubation, read-out: Cell Count EC50
# [3] = Homo sapiens, 72 h, 3-day incubation, read-out: Cell Count GI50
# [4] = Homo sapiens, 72 h, 3-day incubation, read-out: Cell Count IC50
smiles,measurement,setting,value
"CO[C@H]1C[C@@H]2CC[C@@H](C)[C@@](O)(O2)C(=O)C(=O)N2CCCC[C@H]2C(=O)O[C@H]([C@H](C)C[C@@H]2C[C@@H]3C[C@H]2C[C@H]3O)CC(=O)[C@H](C)/C=C(\C)[C@@H](O)[C@@H](OC)C(=O)[C@H](C)C[C@H](C)/C=C/C=C/C=C/1C [Formula I, 37R-hydroxynorbornylrapamycin]",Cell Count Activity Area,"CRO-AP2; CRO-AP2, scale 0-10",5.61
same,Relative cell count (%) Mean,CRO-AP2; 1.00E+00 microM,23.3%
same,Relative cell count (%) Mean,CRO-AP2; 1.00E−01 microM,24.5%
same,Relative cell count (%) Mean,CRO-AP2; 1.00E−02 microM,27.9%
same,Relative cell count (%) Mean,CRO-AP2; 1.00E−03 microM,38.7%
same,Relative cell count (%) Mean,CRO-AP2; 1.01E−04 microM,89.0%
same,Relative cell count (%) Mean,CRO-AP2; 3.16E−01 microM,23.3%
same,Relative cell count (%) Mean,CRO-AP2; 3.17E−02 microM,23.6%
same,Relative cell count (%) Mean,CRO-AP2; 3.17E−03 microM,29.7%
same,Relative cell count (%) Mean,CRO-AP2; 3.18E−04 microM,59.0%
same,Relative cell count (%) Mean,CRO-AP2; 3.18E−05 microM,93.4%
same,EC50,"CRO-AP2; Homo sapiens, 72 h, CRO-AP2, 3-day incubation, read-out: Cell Count EC50",0.319 nM
same,GI50,"CRO-AP2; Homo sapiens, 72 h, CRO-AP2, 3-day incubation, read-out: Cell Count GI50",0.434 nM
same,IC50,"CRO-AP2; Homo sapiens, 72 h, CRO-AP2, 3-day incubation, read-out: Cell Count IC50",0.536 nM
same,Relative cell count (%) Mean,U2OS; 1.00E+00 microM,50.8%
same,Relative cell count (%) Mean,U2OS; 1.00E−01 microM,48.5%
same,Relative cell count (%) Mean,U2OS; 1.00E−02 microM,51.4%
same,Relative cell count (%) Mean,U2OS; 1.00E−03 microM,69.9%
same,Relative cell count (%) Mean,U2OS; 1.01E−04 microM,86.1%
same,Relative cell count (%) Mean,U2OS; 3.16E−01 microM,43.2%
same,Relative cell count (%) Mean,U2OS; 3.17E−02 microM,47.8%
same,Relative cell count (%) Mean,U2OS; 3.17E−03 microM,62.6%
same,Relative cell count (%) Mean,U2OS; 3.18E−04 microM,75.4%
same,Relative cell count (%) Mean,U2OS; 3.18E−05 microM,95.3%
same,EC50,U2OS; [2],0.395 nM
same,GI50,U2OS; [3],2.76 nM
same,IC50,U2OS; [4],12.1 nM
same,Cell Count Activity Area,U2OS; scale 0-10,4.05
same,Relative cell count (%) Mean,U-87 MG; 1.00E+00 microM,51.2%
same,Relative cell count (%) Mean,U-87 MG; 1.00E−01 microM,54.5%
same,Relative cell count (%) Mean,U-87 MG; 1.00E−02 microM,54.7%
same,Relative cell count (%) Mean,U-87 MG; 1.00E−03 microM,64.8%
same,Relative cell count (%) Mean,U-87 MG; 1.01E−04 microM,87.3%
same,Relative cell count (%) Mean,U-87 MG; 3.16E−01 microM,51.6%
same,Relative cell count (%) Mean,U-87 MG; 3.17E−02 microM,50.4%
same,Relative cell count (%) Mean,U-87 MG; 3.17E−03 microM,58.9%
same,Relative cell count (%) Mean,U-87 MG; 3.18E−04 microM,71.8%
same,Relative cell count (%) Mean,U-87 MG; 3.18E−05 microM,93.7%
same,EC50,U-87 MG; [2],0.206 nM
same,GI50,U-87 MG; [3],0.509 nM
same,IC50,U-87 MG; [4],48.8 nM
same,Cell Count Activity Area,U-87 MG; scale 0-10,3.92
same,"Concentration in Mouse Whole Blood, Mean","[1]; Day 1, 1.00 hrs",529 ng/mL
same,"Concentration in Mouse Whole Blood, individual animals 1-3","[1]; Day 1, 1.00 hrs",519 ng/mL and 530 ng/mL and 537 ng/mL
same,"Concentration in Mouse Whole Blood, Mean","[1]; Day 1, 2.00 hrs",431 ng/mL

# — patent US20210024542A1 (Torcept Therapeutics, Inc., priority 2018, published 2021)
